Measurements reported in ChEMBL document CHEMBL3396992, “Synthesis and biological evaluation of pyrazolylthiazole carboxylic acids as potent anti-inflammatory-antimicrobial agents” (2015).
Values after ≈ are worked out from the molar mass of the structure shown. Active and inactive are the calls of the source. The calls are words filed in the database; no cut-off is given here.

Experiments:
[1] = tested on: Saccharomyces cerevisiae; assay: Antimicrobial activity against Saccharomyces cerevisiae MTCC 170 assessed as growth inhibition after 24 hrs by agar well diffusion method; assay type: functional
[2] = tested on: Pseudomonas aeruginosa; details: MTCC 741, 4 mg/ml
Description: Antimicrobial activity against Pseudomonas aeruginosa MTCC 741 assessed as growth inhibition at 4 mg/ml after 24 hrs by agar well diffusion method

[3] = tested on: Rattus norvegicus; assay: Antiinflammatory activity against carrageenan-induced paw edema male Wistar albino rat at 50 mg/kg, ip administered 30 mins prior to carrageenan-challenge measured after 2 hrs relative to control; assay type: functional; details: route intraperitoneal
[4] = tested on: Rattus norvegicus; assay: Antiinflammatory activity against carrageenan-induced paw edema male Wistar albino rat at 50 mg/kg, ip administered 30 mins prior to carrageenan-challenge measured after 4 hrs relative to control; assay type: functional; details: route intraperitoneal
[5] = tested on: Escherichia coli; assay: Antimicrobial activity against Escherichia coli MTCC 1652 assessed as growth inhibition at 4 mg/ml after 24 hrs by agar well diffusion method; assay type: functional, organism-based
[6] = tested on: Rattus norvegicus; assay: Antiinflammatory activity against carrageenan-induced paw edema male Wistar albino rat assessed as edema volume at 50 mg/kg, ip administered 30 mins prior to carrageenan-challenge measured after 2 hrs (reference value: 1.21 +/- 0.16 mL); assay type: functional; details: route intraperitoneal
[7] = tested on: Saccharomyces cerevisiae; assay: Antimicrobial activity against Saccharomyces cerevisiae MTCC 170 assessed as growth inhibition at 4 mg/ml after 24 hrs by agar well diffusion method; assay type: functional; details: for zone of inhibition at 4000 µg/mL: MTCC 170, 24 h, read-out: DIZ
[8] = tested on: Staphylococcus aureus; assay: Antimicrobial activity against Staphylococcus aureus MTCC 96 assessed as growth inhibition at 4 mg/ml after 24 hrs by agar well diffusion method; assay type: functional; details: for zone of inhibition at 4000 µg/mL: MTCC 96, 24 h, read-out: DIZ
[9] = tested on: Rattus norvegicus; assay: Antiinflammatory activity against carrageenan-induced paw edema male Wistar albino rat at 50 mg/kg, ip administered 30 mins prior to carrageenan-challenge measured after 1 hr relative to control; assay type: functional; details: route intraperitoneal
[10] = tested on: Rattus norvegicus; assay: Antiinflammatory activity against carrageenan-induced paw edema male Wistar albino rat assessed as edema volume at 50 mg/kg, po administered 30 mins prior to carrageenan-challenge measured after 1 hr (reference value: 1.11 +/- 0.12 mL); assay type: functional
[11] = tested on: Staphylococcus aureus; assay: Antimicrobial activity against Staphylococcus aureus MTCC 96 assessed as growth inhibition after 24 hrs by agar well diffusion method; assay type: functional
[12] = tested on: Rattus norvegicus; assay: Antiinflammatory activity against carrageenan-induced paw edema male Wistar albino rat assessed as edema volume at 50 mg/kg, ip administered 30 mins prior to carrageenan-challenge measured after 3 hrs (reference value: 1.73 +/- 0.09 mL); assay type: functional; details: route intraperitoneal
[13] = tested on: Rattus norvegicus; assay: Antiinflammatory activity against carrageenan-induced paw edema male Wistar albino rat assessed as edema volume at 50 mg/kg, ip administered 30 mins prior to carrageenan-challenge measured after 4 hrs (reference value: 1.88 +/- 0.20 mL); assay type: functional; details: route intraperitoneal
[14] = tested on: Candida albicans; assay: Antimicrobial activity against Candida albicans MTCC 3017 assessed as growth inhibition after 24 hrs by agar well diffusion method; assay type: functional; details: MTCC 3017, 24 h
[15] = tested on: Rattus norvegicus; assay: Antiinflammatory activity against carrageenan-induced paw edema male Wistar albino rat at 50 mg/kg, ip administered 30 mins prior to carrageenan-challenge measured after 3 hrs relative to control; assay type: functional; details: route intraperitoneal
[16] = tested on: Candida albicans; assay: Antimicrobial activity against Candida albicans MTCC 3017 assessed as growth inhibition at 4 mg/ml after 24 hrs by agar well diffusion method; assay type: functional; details: MTCC 3017, 24 h, read-out: DIZ
[17] = tested on: Bacillus subtilis; assay: Antimicrobial activity against Bacillus subtilis MTCC 121 assessed as growth inhibition after 24 hrs by agar well diffusion method; assay type: functional
[18] = tested on: Bacillus subtilis; assay: Antimicrobial activity against Bacillus subtilis MTCC 121 assessed as growth inhibition at 4 mg/ml after 24 hrs by agar well diffusion method; assay type: functional; details: for zone of inhibition at 4000 µg/mL: MTCC 121, 24 h, read-out: DIZ

| SMILES | MIC ([1]; MTCC 170, 24 h) | DIZ [2] | Activity [3] | Activity [4] | diameter of the inhibition zone (DIZ) [5] | Activity [6] | zone of inhibition at 4000 µg/mL [7] | zone of inhibition at 4000 µg/mL [8] | Activity [9] | Activity [10] | MIC ([11]; MTCC 96, 24 h) | Activity [12] | Activity [13] | MIC [14] | Activity [15] | zone of inhibition at 4000 µg/mL [16] | MIC ([17]; MTCC 121, 24 h) | zone of inhibition at 4000 µg/mL [18] | diameter of the inhibition zone (DIZ) [8] | MIC [11] | also measured |
| --- | --- | --- | --- | --- | --- | --- | --- | --- | --- | --- | --- | --- | --- | --- | --- | --- | --- | --- | --- | --- | --- |
| O=C(O)c1sc(-c2cn(-c3ccccc3)nc2-c2ccc(F)cc2)nc1-c1ccc(F)cc1 | 25 µg/mL (≈ 54.4 µM) | inactive | 52.89% | 75% | inactive | 0.57 mL | 17.6 mm | 15.3 mm | 79.27% | 0.23 mL | 50 µg/mL (≈ 109 µM) | 0.61 mL | 0.47 mL | 25 µg/mL (≈ 54.4 µM) | 64.73% | 19.6 mm | 50 µg/mL (≈ 109 µM) | 17.6 mm | – | – | – |
| O=C(O)c1sc(-c2cn(-c3ccccc3)nc2-c2ccc(F)cc2)nc1-c1ccc(Cl)cc1 | 25 µg/mL (≈ 52.5 µM) | inactive | 47.1% | 80.31% | inactive | 0.64 mL | 20.6 mm | 21.6 mm | 70.27% | 0.33 mL | 25 µg/mL (≈ 52.5 µM) | 0.75 mL | 0.37 mL | 25 µg/mL (≈ 52.5 µM) | 56.14% | 20.6 mm | 25 µg/mL (≈ 52.5 µM) | 18.3 mm | – | – | – |
| O=C(O)c1sc(-c2cn(-c3ccccc3)nc2-c2ccccc2)nc1-c1ccccc1 | 12.5 µg/mL (≈ 29.5 µM) | inactive | 67.76% | 84.04% | inactive | 0.39 mL | 23.6 mm | 24.6 mm | 87.37% | 0.24 mL | 12.5 µg/mL (≈ 29.5 µM) | 0.28 mL | 0.3 mL | 50 µg/mL (≈ 118 µM) | 83.81% | 17.6 mm | 25 µg/mL (≈ 59 µM) | 18.6 mm | – | – | – |
| C[C@@H]1[C@H](O)[C@@H](C)/C=C/C=C/C=C/C=C/C=C/C=C/C=C/[C@H](O[C@@H]2O[C@H](C)[C@@H](O)[C@H](N)[C@@H]2O)C[C@@H]2O[C@](O)(C[C@@H](O)C[C@@H](O)[C@H](O)CC[C@@H](O)C[C@@H](O)CC(=O)O[C@H]1C)C[C@H](O)[C@H]2C(=O)O [AMPHOTERICIN B] | 6.25 µg/mL (≈ 6.76 µM) | – | – | – | – | – | 19.3 mm | – | – | – | – | – | – | 6.25 µg/mL (≈ 6.76 µM) | – | 16.6 mm | – | – | – | – | – |
| COc1ccc(-c2nn(-c3ccccc3)cc2-c2nc(-c3ccc(OC)cc3)c(C(=O)O)s2)cc1 | 50 µg/mL (≈ 103 µM) | inactive | 86.77% | 89.89% | inactive | 0.24 mL | 13.3 mm | 16.3 mm | 82.88% | 0.13 mL | 50 µg/mL (≈ 103 µM) | 0.2 mL | 0.19 mL | 50 µg/mL (≈ 103 µM) | 88.43% | 13 mm | 50 µg/mL (≈ 103 µM) | 16.3 mm | – | – | – |
| CCOC(=O)c1sc(-c2cn(-c3ccccc3)nc2-c2ccc(OC)cc2)nc1-c1ccc(F)cc1 | – | inactive | 85.12% | 80.31% | inactive | 0.18 mL | – | – | 83.78% | 0.18 mL | – | 0.31 mL | 0.37 mL | 12.5 µg/mL (≈ 25 µM) | 82.08% | 24.6 mm | 25 µg/mL (≈ 50 µM) | 20.6 mm | inactive | inactive | MIC [1]: inactive; diameter of the inhibition zone (DIZ) [7]: inactive |
| COc1ccc(-c2nn(-c3ccccc3)cc2-c2nc(-c3ccccc3)c(C(=O)O)s2)cc1 | 50 µg/mL (≈ 110 µM) | inactive | 86.77% | 87.76% | inactive | 0.16 mL | 16 mm | 21.6 mm | 81.98% | 0.2 mL | 25 µg/mL (≈ 55.1 µM) | 0.21 mL | 0.23 mL | 50 µg/mL (≈ 110 µM) | 87.86% | 16.3 mm | 25 µg/mL (≈ 55.1 µM) | 18.6 mm | – | – | – |
| O=C(O)c1sc(-c2cn(-c3ccccc3)nc2-c2ccc(F)cc2)nc1-c1ccccc1 | 50 µg/mL (≈ 113 µM) | inactive | 81.81% | 90.42% | inactive | 0.22 mL | > 20 mm | 20.3 mm | 87.38% | 0.14 mL | 25 µg/mL (≈ 56.6 µM) | 0.37 mL | 0.18 mL | 25 µg/mL (≈ 56.6 µM) | 78.61% | 21.3 mm | 25 µg/mL (≈ 56.6 µM) | 18.3 mm | – | – | – |
| CCOC(=O)c1sc(-c2cn(-c3ccccc3)nc2-c2ccc(Cl)cc2)nc1-c1ccccc1 | – | inactive | 81.81% | 85.1% | inactive | 0.22 mL | – | – | 89.89% | 0.12 mL | – | 0.32 mL | 0.28 mL | 50 µg/mL (≈ 103 µM) | 81.5% | 16 mm | 50 µg/mL (≈ 103 µM) | 12 mm | inactive | inactive | MIC [1]: inactive; diameter of the inhibition zone (DIZ) [7]: inactive |
| COc1ccc(-c2nc(-c3cn(-c4ccccc4)nc3-c3ccc(Cl)cc3)sc2C(=O)O)cc1 | 50 µg/mL (≈ 102 µM) | inactive | 89.29% | 88.82% | inactive | 0.19 mL | 12 mm | – | 86.48% | 0.15 mL | – | 0.16 mL | 0.21 mL | 12.5 µg/mL (≈ 25.6 µM) | 90.75% | 25.3 mm | 25 µg/mL (≈ 51.2 µM) | 18.3 mm | inactive | inactive | – |
| O=C(O)c1sc(-c2cn(-c3ccccc3)nc2-c2ccc(Cl)cc2)nc1-c1ccc(Cl)cc1 | 12.5 µg/mL (≈ 25.4 µM) | inactive | 80.99% | 85.1% | inactive | 0.23 mL | 24.6 mm | – | 76.57% | 0.26 mL | – | 0.43 mL | 0.28 mL | 12.5 µg/mL (≈ 25.4 µM) | 75.14% | 23.6 mm | 50 µg/mL (≈ 102 µM) | 16.6 mm | inactive | inactive | – |
| CCOC(=O)c1sc(-c2cn(-c3ccccc3)nc2-c2ccc(OC)cc2)nc1-c1ccc(OC)cc1 | – | – | 84.29% | 90.95% | – | 0.19 mL | – | 15 mm | 86.48% | 0.15 mL | 50 µg/mL (≈ 97.7 µM) | 0.27 mL | 0.17 mL | 50 µg/mL (≈ 97.7 µM) | 84.39% | 16.6 mm | – | – | – | – | MIC [1]: inactive; diameter of the inhibition zone (DIZ) [7]: inactive; MIC [17]: inactive; diameter of the inhibition zone (DIZ) [18]: inactive |
